{"source": "patent US8617563B2", "about": "“Antichlamydial agents” (Duke University, priority 2011, dated 2013)", "tested_on": "mouse lung fibroblasts infected with C. trachomatis and C. muridarum", "test": "Cell death in infected mouse lung fibroblasts from ICE−/− and ASC−/− knockout mice", "assay_type": "cell-based", "settings": "knockout cells, unlike wild-type counterparts", "description": "FIG. 12 depicts (A) low-magnification view of C. trachomatis LGV-L2 infected HeLa monolayers (30 h) treated with SEQ ID NO:7 or SEQ ID NO:11 peptides. (B) The frequency of condensed nuclei in treated cells is dependent on peptide concentration and Chlamydia infection. (C-D) Toxicity of CPAF inhibitors to Chlamydia-infected cells is observed in non-myeloid cells including human embryonic kidney cells HEK293 (C) and mouse embryo fibroblasts (D). […] (F-G) Cell death induced by anti-CPAF peptides requires Caspase-1 activation. HeLa cells infected with C. muridarum were treated with Ac-YVAD-CMK at 2 hpi, SEQ ID NO:7 peptide or SEQ ID NO:11 control peptide at 12 hpi and the percentage of infected cells with condensed nuclei was assessed at 48 hpi (F). […] The percentage of infected cells with condensed nuclei was assessed at 48 hpi (G). […] Cell death in infected and uninfected cells treated with CPAF inhibitory peptides or control peptides was determined by counting the number of condensed nuclei of ˜1000 cells.\nFIG. 13 depicts (A) that Caspase-1 inhibitors block Chlamydia-mediated cell death. […] Cells were fixed and the percentage of cells with condensed nuclei determined at 24 hpi. […] Infected cells were labeled with a cell-permeable fluorescent substrate of Caspase-1 and treated with inhibitory peptides, and Caspase-1 activity was monitored by flow cytometry. […]", "note": "Where no end group is shown, it is not given here.", "data": [{"substance": "SLFYSPMVPHFWAELRNHYATSGLKRRRRRRRRR-NH2 [SEQ ID NO:7]", "values": [{"measurement": "Host cell death in infected ICE−/− and ASC−/− mouse lung fibroblasts", "value": "resistant to host cell death"}]}]}
